One series concerns hCoV-229E-luc. The series can be described thus: organism not typed. The series is classed as cell-based, alphacoronavirus HCoV-229E.
Series [1] in a line: in vitro. As to conditions: human.
The next series relates to ZIKV-H/PF/2013. The series can be described thus: microbe, parasite or virus in culture. The format is cell-based. As to conditions: Zika virus, Huh-7, 48 h, read-out: IC50 against ZIKV-H/PF/2013.
The test system of series [2] is Candida. albicans DSM-1665. The series can be described thus: Antimicrobial activity (MIC). As to conditions: DSM1665, read-out: MIC Candida. albicans DSM-1665.
The subject of series [3] is DENV-R2A. The following applies: CC50 Huh-7 versus IC50 DENV-R2A.
Another series has as its system Bacillus subtilis DSM-10. The series is described as follows: Antimicrobial activity (MIC). The following applies: DSM10, read-out: MIC Bacillus subtilis DSM-10.
A short description of series [4]: Cell viability (CellTiter Glo) of Huh-7 cells in parallel to ZIKV antiviral test. As to conditions: human. (In general: ATP-based viability assays read luminescence as a measure of living cells.)
In series [5] the test system is Micrococcus luteus DSM-1790. The series is described as follows: Antimicrobial activity (MIC). As to conditions: DSM1790, read-out: MIC Micrococcus luteus DSM-1790.
For another series, the system named is Mucor hiemalis DSM-2656. The series is described as follows: Antimicrobial activity (MIC). The following applies: DSM2656, read-out: MIC Mucor hiemalis DSM-2656.
The nature of series [6]: in vitro. The following applies: human. This is another data set of the same source.
Series [7] deals with DENV-R2A. The series can be described thus: microbe, parasite or virus in culture. The following applies: Dengue virus, Huh-7, 48 h, read-out: IC50 against DENV-R2A.
In series [8] the test system is Candida albicans, Mucor hiemalis, Bacillus subtilis and Micrococcus luteus. The series can be described thus: Antimicrobial test panel (whole-panel statements). The following applies: in the tested concentrations.
Procedure: All thiamyxins except congener A, which was only produced in low amounts, were tested against two
Gram-positive and two fungal pathogens.
Setting [9] is: Huh-7.5/Fluc cells, 48 h, 33 °C, Renilla luciferase, read-out: IC50 against hCoV-229E-luc.
Where [10] appears, read: read-out: IC50 against hCoV-229E-luc, Huh-7.5/Fluc cells, 48 h, 33 °C, Renilla luciferase.

Values after ≈ are worked out from the molar mass of the structure shown. Values joined by “and” are separate entries in the source; they are usually repeats but may differ in a detail not shown here. Equal values may be shown once. Read-outs that look alike come from different tables or passages of the source. A value given as a limit tells only on which side of the number the result lay.

By MIC is commonly meant the smallest concentration in the dilution series that meets the test's criterion for growth inhibition.

For `COC(=O)/C=C(\OC)[C@H](C)[C@H](/C=C/c1csc(CCCCCCCC(C)C)n1)OC` [Fulvuthiacene A], the CC50 with Huh-7.5 Fluc infected is > 10 µM. Moreover, in the series on hCoV-229E-luc (setting [9]), the IC50 is 1.95 µM.

Consider `COC(=O)/C=C(\OC)[C@H](C)[C@H](/C=C/c1csc(CCCCCC(C)C)n1)OC` [Fulvuthiacene B], for which, in the series on Huh-7.5 Fluc infected, the CC50 was > 10 µM. Besides, in the series on hCoV-229E-luc (setting [9]), the IC50 amounted to 0.97 µM.

Turning to `C=C1NC(=O)C2(C)CSC(=N2)c2csc(n2)C2(C)CSC(=N2)C(C(C)CC)NC(=O)C(C)NC(=O)C(=CC(C)C)COC(=O)c2csc(n2)C(C(C)C)N(C)C(=O)C(COC)NC1=O` (stereo not drawn) [Thiamyxin A], the IC50 came out at 2.49 µM in the series with hCoV-229E-luc (Huh7.5, 48 h, read-out: IC50 against hCoV-229E-luc, Huh-7.5/Fluc cells, 48 h, 33 °C, Renilla luciferase) and 2.47 µM in the series on hCoV-229E-luc (setting [10]). Moreover, the CC50 in the series “in vitro [1]” is > 10 µM.

On to `C=C1NC(=O)C2(C)CSC(=N2)c2csc(n2)C2(C)CSC(=N2)C(C(C)CC)NC(=O)C(C)NC(=O)C(=CC(C)C)COC(=O)c2csc(n2)C(C(C)C)N(C)C(=O)C(COC)NC1=O` (stereo not drawn) [Thiamyxin B], for which the figures for the IC50 in the series on ZIKV-H/PF/2013, with hCoV-229E-luc (setting [10]) and in the series on DENV-R2A [7] were 1.07 µM, 2.39 µM and 0.56 µM, respectively. In addition, the MIC in [2] is 64 µg/mL (≈ 66.8 µM); in the series on Bacillus subtilis DSM-10, > 64 µg/mL; in series [5], > 64 µg/mL; in the series with Mucor hiemalis DSM-2656, > 64 µg/mL. The CC50 in the series with Huh-7.5 Fluc infected (human) was > 10 µM. In the series with DENV-R2A [3], the “difference between IC50 and CC50, DENV-R2A assay” value is recorded as “fourfold”. Also, the CC50 at 48 h (in series [4]; in the series “in vitro [6]”) was 2.25 µM each time.

On to `C=C(NC(=O)C1(C)CSC(c2csc(C3(C)CSC(C(NC(=O)C(C)NC(=O)C(=CC(C)C)CO)C(C)CC)=N3)n2)=N1)C(=O)NC(COC)C(=O)N(C)C(c1nc(C(=O)O)cs1)C(C)C` (stereo not drawn) [Thiamyxin C], for which the IC50 in the series with ZIKV-H/PF/2013 was > 15 µM; with hCoV-229E-luc (setting [10]) it was > 10 µM; in the series with hCoV-229E-luc (read-out: IC50 against hCoV-229E-luc, Huh-7.5/Fluc cells, 48 h, 33 °C, Renilla luciferase, listed as KH_Mx152_976), 20.5 µM; in the series with hCoV-229E-luc (read-out: IC50 against hCoV-229E-luc, Huh-7.5/Fluc cells, 48 h, 33 °C, Renilla luciferase, listed as thiamyxin C), ~20 µM and ~20.5 µM; with DENV-R2A [7], 14.6 µM. Further, the minimum inhibitory concentration (MIC) in [2] was > 64 µg/mL; in the series with Bacillus subtilis DSM-10, 64 µg/mL (≈ 65.6 µM); in series [5], 32 µg/mL (≈ 32.8 µM); in the series on Mucor hiemalis DSM-2656, 64 µg/mL (≈ 65.6 µM). Moreover, the CC50 at 48 h in series [4] is > 50 µM. For the same molecule, the CC50 in the series “in vitro [1]” is > 10 µM.

With `C=C(NC(=O)C1(C)CSC(c2csc(C3(C)CSC(C(NC(=O)C(C)NC(=O)C(=CC(C)C)CO)C(C)CC)=N3)n2)=N1)C(=O)NC(COC)C(=O)N(C)C(c1nc(C(=O)OCC(O)CO)cs1)C(C)C` (stereo not drawn) [Thiamyxin D], the minimum inhibitory concentration (MIC) (in series [2]; with Bacillus subtilis DSM-10; in series [5]; in the series on Mucor hiemalis DSM-2656) was > 64 µg/mL in each case. The “effect on the antimicrobial test panel in words” value in series [8] is “did not show effects”. Moreover, the IC50 is > 10 µM in the series with hCoV-229E-luc (setting [10]); 23.1 µM with hCoV-229E-luc (read-out: IC50 against hCoV-229E-luc, Huh-7.5/Fluc cells, 48 h, 33 °C, Renilla luciferase, listed as KH_Mx152_1050); ~20 µM and ~23.1 µM in the series with hCoV-229E-luc (read-out: IC50 against hCoV-229E-luc, Huh-7.5/Fluc cells, 48 h, 33 °C, Renilla luciferase, listed as thiamyxin D). Further, the CC50 in “in vitro [1]” was > 10 µM.

For `NC(=O)c1ncn([C@@H]2O[C@H](CO)[C@@H](O)[C@H]2O)n1` [ribavirin, reference compound], the IC50 in the series on ZIKV-H/PF/2013 is 2.5 µM; in the series with DENV-R2A [7] it was 2.3 µM.

In the case of Chondrosarid B, the CC50 with Huh-7.5 Fluc infected is > 10 µM. Also, the IC50 in the series on hCoV-229E-luc (setting [9]) amounted to 4.19 µM.

The record behind these values is paper PMC10100342, “Thiamyxins: Structure and Biosynthesis of Myxobacterial RNA‐Virus Inhibitors” (Angewandte Chemie (International Ed. in English), 2022).
